Measurements from the kinase profiling compilation of Christmann-Franck et al. (2016).

Legend:
Assay in all cases: radiometric filter-binding kinase assay
[1] = biological target: MAPK12 (human) (UniProt P53778)
[2] = biological target: MST4 (human) (UniProt Q9P289)
[3] = biological target: ERBB4 (human) (UniProt Q15303)
[4] = biological target: DYRK2 (human) (UniProt Q92630)
[5] = biological target: RIPK2 (human) (UniProt O43353)
[6] = biological target: PIM3 (human) (UniProt Q86V86)
[7] = biological target: AURKB (human) (UniProt Q96GD4)
[8] = biological target: PRKCA (human) (UniProt P17252)
[9] = biological target: RPS6KA3 KD1 KD2 (human) (UniProt P51812); details: compound 0.1 µM
[10] = biological target: PIM2 (human) (UniProt Q9P1W9)
[11] = biological target: FLT1 (human) (UniProt P17948)
[12] = biological target: MAPK10 (human) (UniProt P53779)
[13] = biological target: TAOK1 (human) (UniProt Q7L7X3)
[14] = biological target: BTK (human) (UniProt Q06187)
[15] = biological target: INSRR (human) (UniProt P14616)
[16] = test system: PAK2 (human), Q13177 [T402E]
[17] = biological target: MAP2K6 (human) (UniProt P52564)
[18] = biological target: CDK2 CCNA2 (human) (UniProt P20248+P24941)
[19] = biological target: EEF2K (human) (UniProt O00418)
[20] = biological target: AURKA (human) (UniProt O14965)
[21] = biological target: GCK (human) (UniProt Q12851)
[22] = biological target: MAP2K2 (human) (UniProt P36507); details: compound 0.1 µM
[23] = biological target: PHKG1 (human) (UniProt Q16816)
[24] = biological target: BRSK1 (human) (UniProt Q8TDC3)
[25] = biological target: FGFR1 (human) (UniProt P11362)
[26] = biological target: CHEK1 (human) (UniProt O14757)
[27] = biological target: MELK (human) (UniProt Q14680)
[28] = biological target: PRKACA (human) (UniProt P17612)
[29] = test system: SGK1 (human), O00141 [S422D]
[30] = biological target: SRPK1 (human) (UniProt Q96SB4)
[31] = biological target: CSNK2A1 (human) (UniProt P68400)
[32] = biological target: EPHA2 (human) (UniProt P29317)
[33] = biological target: MINK1 (human) (UniProt Q8N4C8)
[34] = biological target: MAPK15 (human) (UniProt Q8TD08)
[35] = biological target: MAPKAPK5 (human) (UniProt Q8IW41)
[36] = biological target: MAPKAPK3 (human) (UniProt Q16644)

Chain of MELK (human) (Q14680 whole entry, looked up): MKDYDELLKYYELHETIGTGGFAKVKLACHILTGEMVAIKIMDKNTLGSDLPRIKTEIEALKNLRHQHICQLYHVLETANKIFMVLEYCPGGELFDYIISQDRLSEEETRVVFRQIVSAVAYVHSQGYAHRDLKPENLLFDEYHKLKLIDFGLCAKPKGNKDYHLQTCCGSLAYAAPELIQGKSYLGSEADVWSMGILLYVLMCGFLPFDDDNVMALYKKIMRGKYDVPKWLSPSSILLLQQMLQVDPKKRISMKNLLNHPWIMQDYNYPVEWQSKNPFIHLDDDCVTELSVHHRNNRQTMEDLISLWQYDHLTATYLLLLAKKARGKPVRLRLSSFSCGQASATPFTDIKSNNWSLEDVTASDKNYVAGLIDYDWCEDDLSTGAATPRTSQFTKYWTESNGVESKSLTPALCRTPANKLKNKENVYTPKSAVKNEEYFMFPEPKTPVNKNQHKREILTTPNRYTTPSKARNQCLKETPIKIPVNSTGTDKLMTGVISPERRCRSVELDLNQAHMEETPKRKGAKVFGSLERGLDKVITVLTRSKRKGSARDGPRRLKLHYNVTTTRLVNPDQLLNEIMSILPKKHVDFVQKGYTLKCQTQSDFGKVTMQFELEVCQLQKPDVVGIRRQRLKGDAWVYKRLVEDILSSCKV
Chain of INSRR (human) (P14616 whole entry, looked up): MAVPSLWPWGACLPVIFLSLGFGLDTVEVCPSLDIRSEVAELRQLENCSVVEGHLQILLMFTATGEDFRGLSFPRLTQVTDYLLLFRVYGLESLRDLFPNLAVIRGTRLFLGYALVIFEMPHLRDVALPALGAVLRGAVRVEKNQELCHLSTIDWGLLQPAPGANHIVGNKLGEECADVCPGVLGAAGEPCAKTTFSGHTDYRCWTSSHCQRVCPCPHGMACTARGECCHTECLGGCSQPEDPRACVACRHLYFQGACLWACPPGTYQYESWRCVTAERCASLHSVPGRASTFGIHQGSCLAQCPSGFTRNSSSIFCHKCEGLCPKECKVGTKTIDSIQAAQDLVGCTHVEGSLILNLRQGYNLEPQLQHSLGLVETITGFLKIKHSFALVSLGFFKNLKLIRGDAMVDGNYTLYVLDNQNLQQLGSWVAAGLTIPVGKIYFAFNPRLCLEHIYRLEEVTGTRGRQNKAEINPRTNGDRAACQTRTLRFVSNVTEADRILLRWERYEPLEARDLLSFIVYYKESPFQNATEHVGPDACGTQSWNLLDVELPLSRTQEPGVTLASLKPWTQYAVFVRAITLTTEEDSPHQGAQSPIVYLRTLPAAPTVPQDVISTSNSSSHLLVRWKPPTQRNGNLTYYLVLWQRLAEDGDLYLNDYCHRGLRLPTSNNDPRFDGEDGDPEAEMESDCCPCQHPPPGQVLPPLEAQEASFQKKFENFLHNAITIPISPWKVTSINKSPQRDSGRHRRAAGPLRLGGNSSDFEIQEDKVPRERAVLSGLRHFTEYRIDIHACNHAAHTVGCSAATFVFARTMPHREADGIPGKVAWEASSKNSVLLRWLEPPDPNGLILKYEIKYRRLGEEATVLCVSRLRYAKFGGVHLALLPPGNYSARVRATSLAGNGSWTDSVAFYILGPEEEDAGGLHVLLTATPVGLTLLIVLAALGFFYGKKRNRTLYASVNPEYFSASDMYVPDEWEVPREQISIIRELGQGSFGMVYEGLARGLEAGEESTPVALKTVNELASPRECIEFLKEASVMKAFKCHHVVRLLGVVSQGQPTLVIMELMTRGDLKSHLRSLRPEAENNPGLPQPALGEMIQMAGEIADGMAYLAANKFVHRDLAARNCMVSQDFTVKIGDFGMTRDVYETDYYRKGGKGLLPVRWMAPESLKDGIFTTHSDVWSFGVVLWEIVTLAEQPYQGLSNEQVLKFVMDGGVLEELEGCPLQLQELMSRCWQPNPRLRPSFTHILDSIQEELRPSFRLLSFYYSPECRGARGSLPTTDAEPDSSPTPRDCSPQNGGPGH
Chain of MAPK12 (human) (P53778 whole entry, looked up): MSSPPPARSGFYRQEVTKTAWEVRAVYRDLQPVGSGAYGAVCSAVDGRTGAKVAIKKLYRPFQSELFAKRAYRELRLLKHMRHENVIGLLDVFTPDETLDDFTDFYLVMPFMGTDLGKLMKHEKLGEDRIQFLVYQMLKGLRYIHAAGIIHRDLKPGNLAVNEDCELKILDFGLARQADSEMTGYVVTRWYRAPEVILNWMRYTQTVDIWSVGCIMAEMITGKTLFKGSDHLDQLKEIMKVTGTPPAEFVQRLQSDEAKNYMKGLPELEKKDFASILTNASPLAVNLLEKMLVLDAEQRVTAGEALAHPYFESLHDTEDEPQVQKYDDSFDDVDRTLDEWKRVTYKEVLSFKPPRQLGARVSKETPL
Chain of BTK (human) (Q06187 whole entry, looked up): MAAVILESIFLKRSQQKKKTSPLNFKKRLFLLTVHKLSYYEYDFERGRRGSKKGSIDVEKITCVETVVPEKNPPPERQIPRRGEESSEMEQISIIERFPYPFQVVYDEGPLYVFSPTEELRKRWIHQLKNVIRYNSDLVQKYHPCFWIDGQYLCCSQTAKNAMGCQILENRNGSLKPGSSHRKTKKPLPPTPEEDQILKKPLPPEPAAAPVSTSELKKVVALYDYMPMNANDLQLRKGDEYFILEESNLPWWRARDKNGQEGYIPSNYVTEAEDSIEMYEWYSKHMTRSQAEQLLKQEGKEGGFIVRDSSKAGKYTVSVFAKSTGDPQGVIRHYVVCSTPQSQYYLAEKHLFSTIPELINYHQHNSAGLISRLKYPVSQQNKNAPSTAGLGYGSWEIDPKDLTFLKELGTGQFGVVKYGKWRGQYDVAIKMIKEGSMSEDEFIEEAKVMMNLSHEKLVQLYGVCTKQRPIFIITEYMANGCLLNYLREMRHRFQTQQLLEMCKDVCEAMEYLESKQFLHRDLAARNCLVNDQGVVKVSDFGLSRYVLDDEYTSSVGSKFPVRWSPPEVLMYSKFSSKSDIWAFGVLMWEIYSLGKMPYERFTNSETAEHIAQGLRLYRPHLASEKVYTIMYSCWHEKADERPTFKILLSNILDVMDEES
Chain of EPHA2 (human) (P29317 whole entry, looked up): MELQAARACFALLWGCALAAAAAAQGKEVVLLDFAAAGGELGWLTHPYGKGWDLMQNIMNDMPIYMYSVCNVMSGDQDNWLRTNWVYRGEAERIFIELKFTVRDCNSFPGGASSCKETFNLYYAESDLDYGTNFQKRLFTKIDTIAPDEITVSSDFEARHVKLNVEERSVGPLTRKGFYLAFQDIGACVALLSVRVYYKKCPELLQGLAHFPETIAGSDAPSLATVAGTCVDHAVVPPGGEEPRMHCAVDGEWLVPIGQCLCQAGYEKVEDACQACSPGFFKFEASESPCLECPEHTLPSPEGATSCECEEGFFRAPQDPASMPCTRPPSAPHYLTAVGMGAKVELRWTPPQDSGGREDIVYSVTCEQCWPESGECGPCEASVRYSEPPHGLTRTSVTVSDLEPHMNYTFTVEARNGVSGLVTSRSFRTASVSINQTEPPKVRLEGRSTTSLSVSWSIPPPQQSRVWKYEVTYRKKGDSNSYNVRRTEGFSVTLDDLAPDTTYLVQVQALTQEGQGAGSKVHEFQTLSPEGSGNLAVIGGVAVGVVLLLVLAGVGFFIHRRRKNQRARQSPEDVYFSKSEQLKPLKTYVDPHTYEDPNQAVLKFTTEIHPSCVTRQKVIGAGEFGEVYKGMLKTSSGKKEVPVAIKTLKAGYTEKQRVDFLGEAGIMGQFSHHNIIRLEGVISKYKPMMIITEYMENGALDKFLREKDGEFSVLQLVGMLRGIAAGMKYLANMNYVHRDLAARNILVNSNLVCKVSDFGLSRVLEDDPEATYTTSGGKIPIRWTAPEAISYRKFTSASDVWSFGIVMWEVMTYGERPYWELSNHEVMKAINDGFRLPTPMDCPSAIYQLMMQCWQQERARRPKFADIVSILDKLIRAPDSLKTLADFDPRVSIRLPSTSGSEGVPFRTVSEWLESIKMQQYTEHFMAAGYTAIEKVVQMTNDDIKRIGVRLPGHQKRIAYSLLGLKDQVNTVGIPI
Chain of AURKA (human) (O14965 whole entry, looked up): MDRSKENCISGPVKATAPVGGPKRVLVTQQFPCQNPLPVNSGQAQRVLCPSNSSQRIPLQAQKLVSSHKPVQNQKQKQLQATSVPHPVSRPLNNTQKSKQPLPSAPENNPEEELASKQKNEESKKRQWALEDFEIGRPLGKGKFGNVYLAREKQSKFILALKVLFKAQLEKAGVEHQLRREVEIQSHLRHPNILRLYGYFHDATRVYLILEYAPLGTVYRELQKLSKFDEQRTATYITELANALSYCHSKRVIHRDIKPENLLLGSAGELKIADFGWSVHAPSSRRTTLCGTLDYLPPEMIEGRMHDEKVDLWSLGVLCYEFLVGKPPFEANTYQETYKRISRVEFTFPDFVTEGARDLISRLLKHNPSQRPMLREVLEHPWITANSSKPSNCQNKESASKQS

residual activity ([1]; compound 0.1 µM): 119% | residual activity ([1]; compound 1.0 µM): 112% | residual activity ([1]; compound 10.0 µM): 109% | residual activity ([2]; compound 0.1 µM): 91% | residual activity ([2]; compound 1.0 µM): 81% | residual activity ([2]; compound 10.0 µM): 91% | residual activity ([3]; compound 0.1 µM): 112% | residual activity ([3]; compound 1.0 µM): 104% | residual activity ([4]; compound 0.1 µM): 87% | residual activity ([4]; compound 1.0 µM): 89% | residual activity ([4]; compound 10.0 µM): 53% | residual activity ([5]; compound 0.1 µM): 86% | residual activity ([5]; compound 1.0 µM): 77% | residual activity ([5]; compound 10.0 µM): 77% | residual activity ([6]; compound 0.1 µM): 76% | residual activity ([6]; compound 1.0 µM): 36% | residual activity ([6]; compound 10.0 µM): 13% | residual activity ([7]; compound 0.1 µM): 85% | residual activity ([7]; compound 1.0 µM): 76% | residual activity ([7]; compound 10.0 µM): 71% | residual activity ([8]; compound 0.1 µM): 84% | residual activity ([8]; compound 1.0 µM): 70% | residual activity ([8]; compound 10.0 µM): 30% | residual activity [9]: 94% | residual activity ([10]; compound 1.0 µM): 110% | residual activity ([10]; compound 10.0 µM): 69% | residual activity ([11]; compound 0.1 µM): 103% | residual activity ([11]; compound 1.0 µM): 105% | residual activity ([11]; compound 10.0 µM): 83% | residual activity ([12]; compound 0.1 µM): 97% | residual activity ([12]; compound 10.0 µM): 95% | residual activity ([13]; compound 0.1 µM): 100% | residual activity ([13]; compound 1.0 µM): 108% | residual activity ([13]; compound 10.0 µM): 104% | residual activity ([14]; compound 0.1 µM): 92% | residual activity ([14]; compound 1.0 µM): 93% | residual activity ([14]; compound 10.0 µM): 112% | residual activity ([15]; compound 0.1 µM): 71% | residual activity ([15]; compound 1.0 µM): 49% | residual activity ([15]; compound 10.0 µM): 21% | residual activity ([16]; compound 0.1 µM): 99% | residual activity ([16]; compound 1.0 µM): 93% | residual activity ([16]; compound 10.0 µM): 90% | residual activity ([17]; compound 0.1 µM): 89% | residual activity ([17]; compound 1.0 µM): 90% | residual activity ([17]; compound 10.0 µM): 96% | residual activity ([18]; compound 0.1 µM): 83% | residual activity ([18]; compound 1.0 µM): 81% | residual activity ([18]; compound 10.0 µM): 56% | residual activity ([19]; compound 0.1 µM): 118% | residual activity ([19]; compound 10.0 µM): 117% | residual activity ([20]; compound 0.1 µM): 91% | residual activity ([20]; compound 1.0 µM): 95% | residual activity ([20]; compound 10.0 µM): 103% | residual activity ([21]; compound 0.1 µM): 91% | residual activity ([21]; compound 1.0 µM): 94% | residual activity ([21]; compound 10.0 µM): 71% | residual activity [22]: 98% | residual activity ([23]; compound 0.1 µM): 101% | residual activity ([23]; compound 1.0 µM): 101% | residual activity ([23]; compound 10.0 µM): 75% | residual activity ([24]; compound 0.1 µM): 91% | residual activity ([24]; compound 1.0 µM): 81% | residual activity ([24]; compound 10.0 µM): 41% | residual activity ([25]; compound 0.1 µM): 101% | residual activity ([25]; compound 1.0 µM): 115% | residual activity ([25]; compound 10.0 µM): 121% | residual activity ([26]; compound 0.1 µM): 89% | residual activity ([26]; compound 1.0 µM): 88% | residual activity ([26]; compound 10.0 µM): 53% | residual activity ([27]; compound 0.1 µM): 71% | residual activity ([27]; compound 1.0 µM): 40% | residual activity ([27]; compound 10.0 µM): 26% | residual activity ([28]; compound 0.1 µM): 79% | residual activity ([28]; compound 1.0 µM): 33% | residual activity ([28]; compound 10.0 µM): 8% | residual activity ([29]; compound 0.1 µM): 82% | residual activity ([29]; compound 1.0 µM): 55% | residual activity ([29]; compound 10.0 µM): 25% | residual activity ([30]; compound 0.1 µM): 94% | residual activity ([30]; compound 1.0 µM): 99% | residual activity ([30]; compound 10.0 µM): 86% | residual activity ([31]; compound 0.1 µM): 71% | residual activity ([31]; compound 1.0 µM): 74% | residual activity ([31]; compound 10.0 µM): 86% | residual activity ([32]; compound 0.1 µM): 119% | residual activity ([32]; compound 1.0 µM): 114% | residual activity ([32]; compound 10.0 µM): 103% | residual activity ([33]; compound 0.1 µM): 107% | residual activity ([33]; compound 1.0 µM): 96% | residual activity ([33]; compound 10.0 µM): 72% | residual activity ([35]; compound 0.1 µM): 94% | residual activity ([35]; compound 1.0 µM): 95% | residual activity ([35]; compound 10.0 µM): 96% | residual activity ([36]; compound 0.1 µM): 98% | residual activity ([36]; compound 1.0 µM): 101% | residual activity ([36]; compound 10.0 µM): 97%
Structure (SMILES): CCn1c(-c2nonc2N)nc2cncc(CNC3CCNCC3)c21
residual activity ([34]; compound 0.1 µM): 95% | residual activity ([34]; compound 1.0 µM): 62% | residual activity ([34]; compound 10.0 µM): 27%
